Source: patent US20240407993A1, “PEPTIDE HAVING ANTI-AGING ACTIVITY, AND USE THEREOF” (CAREGEN CO., LTD., priority 2021, published 2024)

What was measured:
[1] = tested on: Fibronectin; test: Fibronectin gene expression by RT-PCR in fibroblasts; format: cell-based, mouse; details: NIH3T3 cells, peptide 1, 10, 50 μM, 24 hours; FIGS. 1A, 1C
Method: (§1) First, NIH3T3 cells (mouse fibroblast cell line) were seeded in a 6-well plate at a cell density of 3×10^5 cell/well, and then the cells were cultured in DMEM medium containing 10% fetal bovine serum (FBS) for 24 hours. The cultured cells were washed once with serum free DMEM medium, and the peptide of the present invention was mixed in 1 mL of the serum free DMEM medium at each of concentrations of 1, 10, and 50 μM, and dispensed into the cells. A positive control (PC) was treated with 5 ng/ml of TGF-β1 instead of the above peptide. The cells were cultured in a CO2 incubator at 37° C. for 24 hours.
(§2) The cultured cells were washed twice with PBS, and RNA was extracted from the cells using easy blue (iNtRON, Cat. No.: 17061, Korea). The amount of RNA extracted was quantified, 1,000 ng of RNA was added per tube, and RT reaction was performed using a kit (enzynomics, Cat. No.: PT200, Korea). RT-PCR was performed using a PCR kit (enzynomics, Cat. No.: […], Korea). The sequences of the primers of collagen, fibronectin, and elastin used in RT-PCR and the sequence of the primer of GAPDH used to compare the total RNA amount of each treatment group are shown in [Table 2].

[2] = tested on: Fibronectin; test: Fibronectin mRNA level decreased by UV irradiation, RT-PCR in fibroblasts; format: cell-based, mouse; details: NIH3T3 cells, 8 J/cm^2 UVA, peptide 1, 10, 50 μM, 6 hours after irradiation; FIGS. 5A, 5C
Method: The expression of genes related to extracellular matrix components is inhibited when irradiated with UV.
(§3) First, NIH3T3 cells were seeded in a 6-well plate at a cell density of 5×10^5 cell/well, and then the cells were cultured in DMEM medium containing 10% fetal bovine serum (FBS) for 24 hours. The cultured cells were washed once with serum free DMEM medium, and then the peptide of the present invention was mixed in 1 mL of the serum free DMEM medium at each of concentrations of 1, 10, and 50 μM, and dispensed into the cells. A positive control (PC) was treated with 50 μM of Quercetin instead of the above peptide. The cells were cultured in a CO2 incubator at 37° C. for 1 hour.
The medium of the cultured cells was transferred to a tube (e-tube), 1 ml of PBS was added, and irradiation was performed with 8 J/cm^2 of UVA using a UV irradiator (VILBER LOURMAT, Cat No.: 3102-BSU, France). After removing PBS, 900 μL of the medium transferred to the tube was dispensed, and culture was performed in a CO2 incubator at 37° C. for 6 hours. The cultured cells were washed twice with PBS, and then RNA was extracted from the cells using easy blue (iNtRON, Cat. No.: 17061, Korea). The amount of RNA extracted was quantified, 1,000 ng of RNA was added per tube, and RT reaction was performed using a kit (enzynomics, Cat. No.: RT200, Korea). […]

[3] = tested on: Col1a1; test: Col1a1 (collagen) gene expression by RT-PCR in fibroblasts; format: cell-based, mouse; details: NIH3T3 cells, peptide 1, 10, 50 μM, 24 hours; FIGS. 1A, 1B
Method: as §1, §2

[4] = tested on: SIRT1; test: SIRT1 mRNA level decreased by UV irradiation, RT-PCR in keratinocytes; format: cell-based, human; details: HaCaT cells, 20 mJ/cm^2 UVB, peptide 1, 10, 50 μM, 4 hours after irradiation; FIGS. 7A, 7B
Method: The expression of genes related to aging is inhibited when irradiated with UV.
as §3, with “First, HaCaT” for “First, NIH3T3”, “with 2.5 mM” for “with 50 μM”, “of N-Acetylcysteine (NaC)” for “of Quercetin”, “peptide.” for “peptide. The cells were cultured in a CO2 incubator at 37° C. for 1 hour.”
The cells were cultured in a CO2 incubator at 37° C. for 1 hour. The medium of the cultured cells was transferred to a tube (e-tube), 1 ml of PBS was added, and irradiation was performed with 20 mJ/cm^2 of UVB using a UV irradiator (VILBER LOURMAT, Cat No.: 3102-BSU, France). After removing PBS, 900 μL of the medium transferred to the tube was added, and culture was performed in a CO2 incubator at 37° C. for 4 hours. The cultured cells were washed twice with PBS, and then RNA was extracted from the cells using easy blue (iNtRON, Cat. No.: 17061, Korea). The extracted RNA was subjected to RT reaction using a kit (enzynomics, Cat. No.: RT200, Korea). Thereafter, RT-PCR was performed using a PCR kit (enzynomics, Cat. No.: R581T, Korea). […]

Sequence: LCACCLHNCNECQ
- expression of the fibronectin gene [1]: gradually increased as a concentration of the peptide increased
- mRNA level of fibronectin decreased by UV irradiation [2]: increased again
- expression of the collagen (Col1a1) gene [3]: gradually increased as a concentration of the peptide increased
- mRNA level of SIRT1 decreased by UV irradiation [4]: increased again
